# In patent publication US20240208898A1, “ENAMINE N-OXIDES: SYNTHESIS AND APPLICATION TO HYPOXIA-RESPONSIVE PRODRUGS AND IMAGING AGENTS” (DANA-FARBER CANCER INSTITUTE, INC., priority 2021, published 2024):
# System: series of cancer cell lines
# Experiment: In-gel fluorescence labeling profile in a series of cancer cell lines
# Assay type: cell-based
# Method: Cells were seeded at a density of 200,000 cells per well in media [2 mL, RPMI (A431, H460, HeLa, Bx-PC3, MDA-MB-231) or DMEM (U251) supplemented with 5% heat-inactivated human serum (Sigma), penicillin (100 units/mL), and streptomycin (0.1 mg/mL)] in 6-well plates. Cells were incubated at 37° C. under ambient atmosphere with 5% CO2. After 24 h, the media was aspirated and replaced with fresh media [1 mL, RPMI (A431, H460, HeLa, Bx-PC3, MDA-MB-231) or DMEM (U251) supplemented with 5% heat-inactivated human serum, penicillin (100 units/mL), and streptomycin (0.1 mg/mL)] containing enamine N-oxide probe (200 mM in ethanol; 10 μM final concentration). Plates were then incubated at 37° C. under ambient (20% pO2) or various oxygenated conditions (5%, 1%, or 0.1% pO2) with 5% CO2. […] The protein concentration was determined by BCA assay following the manufacturer's protocol (Pierce). […] The dried pellet was then resuspended in an SDS solution (50 μL, 1% SDS in 50 mM Tris, pH 8.0), and the protein concentration was determined by BCA assay. […] In-gel fluorescence was visualized by a laser scanner (Typhoon™ FLA 9500, GE) and quantified using ImageJ software. […] Detection was mediated by an anti-rabbit IR680-dye conjugated secondary antibody (LI-COR Biosciences, 925-68071) and imaged using a fluorescence scanner (Odyssey CLx, LI-COR Biosciences).
structure (smiles),measurement,value
"C#CCCCCC(F)/C=C/[N+]([O-])(CC)CC (stereo not shown) [probe 39, (E)-N,N-diethyl-3-fluoronon-1-en-8-yn-1-amine oxide]",labeling profile (hypoxic vs normoxic),hypoxia selectivity
